According to ChEMBL document CHEMBL1201862, “PubChem BioAssay data set” (2004):
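Assay format: 96-well plates, 48-hour exposure. GI50 is the concentration that inhibits growth by half.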 The source made the active and inactive calls. Rule as the data show it: active = GI50 up to about 1.1 µM and inactive = higher.

Key:
Assay in all cases: NCI anticancer screen, dose series, 48 h
KM12 = tested on: KM12
EKVX = tested on: EKVX
UACC-257 = tested on: UACC-257
UO-31 = tested on: UO-31
MOLT-4 = tested on: MOLT-4
NCI-H460 = tested on: NCI-H460
HOP-62 = tested on: HOP-62
SNB-19 = tested on: SNB-19
SF-295 = tested on: SF-295
SF-539 = tested on: SF-539
OVCAR-3 = tested on: OVCAR-3
SR = tested on: SR
RPMI-8226 = tested on: RPMI-8226
HCC 2998 = tested on: HCC 2998
HT-29 = tested on: HT-29
K562 = tested on: K562
SNB-78 = tested on: SNB-78
OVCAR-8 = tested on: OVCAR-8
MDA-MB-435 = tested on: MDA-MB-435
NCI/ADR-RES = tested on: NCI/ADR-RES

| SMILES | GI50 (KM12) | GI50 (EKVX) | GI50 (UACC-257) | GI50 (UO-31) | GI50 (MOLT-4) | GI50 (NCI-H460) | GI50 (HOP-62) | GI50 (SNB-19) | GI50 (SF-295) | GI50 (SF-539) | GI50 (OVCAR-3) | GI50 (SR) | GI50 (RPMI-8226) | GI50 (HCC 2998) | GI50 (HT-29) | GI50 (K562) | GI50 (SNB-78) | GI50 (OVCAR-8) | GI50 (MDA-MB-435) | GI50 (NCI/ADR-RES) |
| --- | --- | --- | --- | --- | --- | --- | --- | --- | --- | --- | --- | --- | --- | --- | --- | --- | --- | --- | --- | --- |
| O=S(=O)(O)SC/C=C\CSS(=O)(=O)O | 21.4 µM (inactive) | > 100 µM (inactive) | > 100 µM (inactive) | > 100 µM (inactive) | > 100 µM (inactive) | 42.9 µM (inactive) | > 100 µM (inactive) | 42.4 µM (inactive) | 31.3 µM (inactive) | 66.2 µM (inactive) | > 100 µM (inactive) | > 100 µM (inactive) | > 100 µM (inactive) | > 100 µM (inactive) | 42.3 µM (inactive) | > 100 µM (inactive) | > 100 µM (inactive) | > 100 µM (inactive) |  |  |
| N#CC(C(=O)CCC(=O)C(C#N)c1ccccc1)c1ccccc1 (configuration not stated) | > 100 µM (inactive) | > 100 µM (inactive) | > 100 µM (inactive) | > 100 µM (inactive) | > 100 µM (inactive) | > 100 µM (inactive) | > 100 µM (inactive) | > 100 µM (inactive) | > 100 µM (inactive) | > 100 µM (inactive) | > 100 µM (inactive) | > 100 µM (inactive) | > 100 µM (inactive) | > 100 µM (inactive) | > 100 µM (inactive) | > 100 µM (inactive) | > 100 µM (inactive) | > 100 µM (inactive) |  |  |
| Cc1cc(O)nc(NN2C(Cl)C(=O)C2c2ccccc2O)n1 (configuration not stated) | 4.32 µM (inactive) | 3.27 µM (inactive) | 3.4 µM (inactive) | 2.06 µM (inactive) | 0.585 µM (active) | 0.726 µM (active) | 1.76 µM (inactive) | 5.85 µM (inactive) | 2.76 µM (inactive) | 4.54 µM (inactive) | 0.33 µM (active) | 0.796 µM (active) | 3.06 µM (inactive) | 2.67 µM (inactive) | 8.39 µM (inactive) | 1.08 µM (active) | 24.3 µM (inactive) | 2.66 µM (inactive) | 5.68 µM (inactive) | 1.54 µM (inactive) |
| CCOC(=O)CCC(NC(=O)c1ccc(/N=C/c2nc3cc(C(F)(F)F)ccc3nc2-c2ccccc2)cc1)C(=O)OCC (configuration not stated) | 18.3 µM (inactive) | 28.9 µM (inactive) | > 50 µM (inactive) | > 50 µM (inactive) | > 50 µM (inactive) | 24 µM (inactive) | 12.9 µM (inactive) | 10.6 µM (inactive) | 9.84 µM (inactive) | 11.4 µM (inactive) | 46.6 µM (inactive) | > 50 µM (inactive) | > 50 µM (inactive) | > 50 µM (inactive) | > 50 µM (inactive) | > 50 µM (inactive) | 10 µM (inactive) | 7.33 µM (inactive) |  |  |
| C/C(=N\N=C(/[SeH])N1CC2CCC(CC2)C1)c1ccccn1 | 0.094 µM (active) | 0.0914 µM (active) | 0.0112 µM (active) | 0.217 µM (active) | 0.014 µM (active) | 0.0568 µM (active) | 0.341 µM (active) | 0.2 µM (active) | 0.0673 µM (active) | 0.251 µM (active) | 0.0222 µM (active) | 0.0223 µM (active) | < 0.01 µM (active) | 0.243 µM (active) | < 0.01 µM (active) | < 0.01 µM (active) | 0.216 µM (active) | 0.0137 µM (active) | 0.119 µM (active) | < 0.01 µM (active) |
| COC(=O)C(Cc1nc2ccccc2nc1O)C(NO)C(=O)Nc1c(Cl)cc([N+](=O)[O-])cc1Cl (configuration not stated) | 33.7 µM (inactive) | 27.7 µM (inactive) | 27.7 µM (inactive) | 36.1 µM (inactive) | 27.9 µM (inactive) | 20.7 µM (inactive) | 26 µM (inactive) | 40.1 µM (inactive) | 27.7 µM (inactive) | 22.8 µM (inactive) | 40.6 µM (inactive) | 31.3 µM (inactive) | 34.7 µM (inactive) | 59.6 µM (inactive) | 35.2 µM (inactive) | 40.8 µM (inactive) | 40.8 µM (inactive) | 30.4 µM (inactive) |  |  |
| CN(C)C[C@H]1CC[C@@H](CN(C)C)C1=O | 16.9 µM (inactive) | 16.7 µM (inactive) | 8.47 µM (inactive) | 14.9 µM (inactive) | 1.23 µM (inactive) | 19.5 µM (inactive) | > 50 µM (inactive) | > 50 µM (inactive) | 48.9 µM (inactive) | 10 µM (inactive) | 9.06 µM (inactive) | 2.21 µM (inactive) | 0.535 µM (active) | > 29.6 µM (inactive) | 9.84 µM (inactive) | 0.564 µM (active) | 10.3 µM (inactive) | 9.08 µM (inactive) | 9.66 µM (inactive) |  |
| Cc1cccc(C)c1NC(=O)CCC(=O)NNc1nnc(C)n1N | > 100 µM (inactive) | > 100 µM (inactive) | > 100 µM (inactive) | > 100 µM (inactive) | > 100 µM (inactive) | > 100 µM (inactive) | > 100 µM (inactive) | > 100 µM (inactive) | > 100 µM (inactive) | > 100 µM (inactive) | > 100 µM (inactive) | > 100 µM (inactive) | > 100 µM (inactive) | > 100 µM (inactive) | > 100 µM (inactive) | > 100 µM (inactive) | > 100 µM (inactive) | > 100 µM (inactive) |  |  |
| CC12CCC[C@@](C)(C(=O)OC3OC(CO)C(O)C(O)C3O)[C@H]1CCC13CC4CC(OC4(CO)[C@H]1O)[C@@H]23 (some centres not stated) | > 100 µM (inactive) | > 100 µM (inactive) | > 100 µM (inactive) | > 100 µM (inactive) | > 100 µM (inactive) | > 100 µM (inactive) | > 100 µM (inactive) | > 100 µM (inactive) | > 100 µM (inactive) | > 100 µM (inactive) | > 100 µM (inactive) | > 100 µM (inactive) | > 100 µM (inactive) | > 100 µM (inactive) | > 100 µM (inactive) | > 100 µM (inactive) | > 100 µM (inactive) | > 100 µM (inactive) |  |  |
